# Data: publication PMC9607578, “Chemopreventive Effect on Human Colon Adenocarcinoma Cells of Styrylquinolines: Synthesis, Cytotoxicity, Proapoptotic Effect and Molecular Docking Analysis” (Molecules, 2022)
# Entries after “also recorded” stand apart in the source; their conditions may differ. Read-outs that look alike come from different tables or passages of the source.
# Key:
# HaCaT cells = experiment: Cytotoxic activity, sulforhodamine B (SRB) staining; type: cell-based; conditions: Homo sapiens, read-out: HaCaT IC50
# Experimental: (§1) For the biological assays, the human colon adenocarcinoma cell line SW480 and its metastatic derivative SW620 were used. Additionally, the nonmalignant cell line HaCaT was used to find the selectivity index of the compounds. All cell lines were obtained by the Colombian Plant Chemistry Group of the Faculty of Exact and Natural Sciences of the University of Antioquia (Medellín, Colombia) from the European Collection of Authenticated Cell Cultures (ECACC, Salisbury, UK). Cells were cultured in a DMEM medium with 4500 mg/L of glucose and L-glutamine (Sigma-Aldrich, Burlington, MA, USA), supplemented with 10% heat-inactivated (56 °C) horse serum (Gibco, Waltham, MA, USA), 1% penicillin/streptomycin (Sigma-Aldrich, Burlington, MA, USA), and 1% non-essential amino acids (Sigma-Aldrich, Burlington, MA, USA). For all experiments, horse serum was reduced to 3%, and the medium was supplemented with […] of transferrin, 5 ng/mL of selenium, and […] of insulin (ITS; Sigma-Aldrich, Burlington, MA, USA). All cell lines were incubated at 37 °C in a 5% CO2 atmosphere. Additionally, cell cultures were constantly monitored with PCR (Sigma-Aldrich, Burlington, MA, USA) for Mycoplasma spp. to control contamination with this agent.
# (§2) To evaluate the effect of styrylquinolines on the viability of the SW480, SW620, and HaCaT cell lines, sulforhodamine B (SRB) staining was used. SRB is a colorimetric assay that indirectly estimates the number of living cells based on the ability of SRB to bind to protein components of adherent cells. Briefly, the malignant cell lines were seeded at a final density of 2.0 × 10^4 cells/well, and the nonmalignant cell line was seeded at a final density of 1.5 × 10^4 cells/well in 96-well tissue culture plates. All cell lines were incubated at 37 °C in a 5% CO2 atmosphere for 24 h to enable cell adherence, and they were then treated for 24 and 48 h with increasing concentrations (0.01–160 µM) of the styrylquinolines or their respective precursors (8-hydroxyquinoline and resveratrol), as well as 1% DMSO (negative control) and 5-FU (standard drug). After treatment, cells were fixed with trichloroacetic acid (50% v/v; PanReac AppliChem, Barcelona, Spain) for a period of one hour at 4 °C. After this, the cells were incubated for 30 min at room temperature with 0.4% (w/v) SRB (Sigma-Aldrich, Burlington, MA, USA). To remove unbound SRB, the cells were washed with 1% acetic acid, and the plates were allowed to dry at room temperature. Protein-bound SRB was solubilized with 10 mM Tris-base (Amresco, Cleveland, OH, USA) for 30 min at room temperature under constant agitation, and absorbance was measured at 490 nm in a microplate reader (Bio-Rad iMark^TM, Hercules, CA, USA). Finally, the concentration of the compound that inhibits 50% of cell growth (IC50) and the selectivity index (SI) were determined.
# SW480 cells [1] = experiment: as above; type: cell-based, human; conditions: for IC50: Homo sapiens, read-out: SW480 IC50
# Experimental: as §1, §2
# SW620 cells [2] = experiment: as above; type: cell-based, human; conditions: for IC50: Homo sapiens, read-out: SW620 IC50
# Experimental: as §1, §2
# SW480 cells [3] = experiment: Antiproliferative activity, SRB staining, 0-8 days; type: cell-based, human
# Experimental: (§3) The antiproliferative activity of styrylquinolines with higher selective cytotoxicity toward malignant cells was also tested with SRB staining. Briefly, cells were seeded to a final density of 2.5 × 10^3 cells/well in 96-well tissue culture plates and incubated under the same conditions described for cytotoxic activity. After 24 h, the cells were treated with increasing concentrations (5–80 µM) of the selected hybrids or with 1% DMSO (negative control) for 0, 2, 4, 6, and 8 days. Culture media were replaced every 48 h to guarantee the basic nutrients required for cell growth and viability, maintaining the concentrations of each of the selected hybrids. After each incubation time, cells were fixed and stained, and the absorbance was measured as described above.
# SW620 cells [4] = experiment: Antiproliferative activity, SRB staining, 0-8 days; type: cell-based, human
# Experimental: as §3
# SW620 cells [5] = experiment: Apoptosis, APO-DIRECT kit (FITC-dUTP/PI), flow cytometry; type: cell-based, human; conditions: treated at IC50
# Experimental: To assess whether the chosen styrylquinolines generated apoptosis in malignant cells, the APO-DIRECT^TM kit (Chemicon^R International, Temecula, CA, USA) was used following the manufacturer’s instructions. Briefly, the malignant cells were seeded at a final density of 1.1 × 10^6 cells in a T75 culture flask and incubated for 24 h at 37 °C in a 5% CO2 atmosphere. […] After incubation time, cells were fixed and stained with FITC-dUTP and propidium iodide (PI), respectively, according to the manufacturer’s protocol. Analysis was conducted via flow cytometry (LSR Fortessa; BD Biosciences, San Jose, CA, USA) and FlowJo 7.6 software. All PI-FITC-positive cells were considered to be apoptotic cells.
# SW620 cells [6] = experiment: Apoptosis markers (Bcl-2, active caspase 3, cleaved PARP), human apoptosis panel, MAGPIX; type: cell-based; conditions: vs negative control
# Experimental: (§4) To assess whether styrylquinolines had any effect on the expression of immunological markers associated with the inflammatory process, malignant cells were seeded at a final density of 2.5 × 10^5 cells/well in 6-well tissue culture plates, and cell adherence was allowed. […] After the incubation time, the supernatant was collected, and the levels of the following analytes were measured using the ProcartaPlex Human Th1/Th2/Th9/Th17/Th22/Treg 18-plex panel (Invitrogen) according to the manufacturer’s protocol: GM-CSF, IFN-γ, TNF-α, IL-10, IL-12p70, IL-13, IL-17A, IL-18, IL-1β, IL-2, IL-21, IL-22, IL-23, IL-27, IL-4, IL-5, IL-6, and IL-9. Furthermore, to evaluate the participation of these hybrids in the production of some markers associated with the apoptosis process (Bcl-2, active Caspase-3 and cleaved PARP) in colorectal cancer cells, the human apoptosis panel (Invitrogen, Waltham, Massachusetts, United States) was used following the manufacturer’s instructions. To normalize the concentration of each marker, total proteins were quantified using the PierceTM BCA kit (Thermo Fisher Scientific, Waltham, MA, USA).
# (§5) In both cases, the reading was performed in the MAGPIX marker multiplex analyzer (Luminex XMAP, Austin, TX, USA). The concentration of each molecule was extrapolated from the calibration curve (individual for each marker) obtained from the standards provided by the kit.
# SW480 cells [7] = experiment: Immunological markers, ProcartaPlex 18-plex panel, MAGPIX; type: cell-based, human; conditions: at IC50
# Experimental: as §4, §5
# SW620 cells [8] = experiment: as above; type: cell-based, human; conditions: at IC50
# Experimental: as §4, §5
# [9] = SW480, 24 h treatment, mean ± SE
# [10] = SW480, 48 h treatment, mean ± SE
# [11] = SW-620, 24 h treatment, mean ± SE
# [12] = SW-620, 48 h treatment, mean ± SE
SMILES,"IC50 (HaCaT cells; 24 h treatment, mean ± SE)","IC50 (HaCaT cells; 48 h treatment, mean ± SE)",SI (IC50 HaCaT / IC50 SW480) (SW480 cells [1]; 24 h treatment),SI (IC50 HaCaT / IC50 SW480) (SW480 cells [1]; 48 h treatment),IC50 (SW480 cells [1]; [9]),IC50 (SW480 cells [1]; [10]),SI (IC50 HaCaT / IC50 SW620) (SW620 cells [2]; 24 h treatment),SI (IC50 HaCaT / IC50 SW620) (SW620 cells [2]; 48 h treatment),IC50 (SW620 cells [2]; [11]),IC50 (SW620 cells [2]; [12]),other results
"COc1cc(CCc2ccc3cccc(O)c3n2)ccc1O [Compound 4b, 2-(4-hydroxy-3-methoxyphenethyl)quinolin-8-ol]",109 ± 8.1 µM,53.6 ± 2.2 µM,1.2,1.2,93.4 ± 16.6 µM,43.2 ± 2 µM,1.9,2.9,58.8 ± 5.5 µM,18.6 ± 2 µM,–
"Oc1cccc2cccnc12 [Compound 8-HQ, 8-hydroxyquinoline, reference compound]",–,–,1.0,1.6,–,–,1.6,1.7,–,–,"IC50 (HaCaT cells; 24 h): 87.1 ± 9.4 µM; IC50 (HaCaT cells; 48 h): 61.6 ± 4.8 µM; IC50 (SW480 cells [1]; SW480, 24 h): 89.6 ± 11.8 µM; IC50 (SW480 cells [1]; SW480, 48 h): 38.8 ± 3.2 µM; IC50 (SW620 cells [2]; SW-620, 24 h): 55.3 ± 3.6 µM; IC50 (SW620 cells [2]; SW-620, 48 h): 36.3 ± 4.8 µM"
Oc1ccc(/C=C/c2ccc3cccc(O)c3n2)c(O)c1 [Compound 3c],110 ± 12.7 µM,38.4 ± 6.2 µM,3.0,1.0,37.1 ± 3.8 µM,38.4 ± 3.8 µM,1.8,1.9,62 ± 4 µM,20.7 ± 3.1 µM,–
"O=c1[nH]cc(F)c(=O)[nH]1 [Compound 5-FU, 5-Fluorouracil, reference compound]",> 2000 µM,38.8 ± 7.2 µM,2.0,–,> 2000 µM,748 ± 158 µM,–,0.1,> 2000 µM,296 ± 39.7 µM,–
"Oc1ccc(CCc2ccc3cccc(O)c3n2)cc1 [Compound 4a, 2-(4-hydroxyphenethyl)quinolin-8-ol]",65.1 ± 8.4 µM,69.7 ± 3 µM,0.6,1.1,117 ± 5.3 µM,63.2 ± 7.1 µM,1.3,2.4,51 ± 5.6 µM,28.9 ± 1.2 µM,–
"Oc1ccc(/C=C/c2cc(O)cc(O)c2)cc1 [Resveratrol, resveratrol, reference compound]",180 ± 7.2 µM,98.2 ± 7 µM,0.8,0.7,217 ± 12.8 µM,136 ± 9.1 µM,1.1,0.8,169 ± 3.9 µM,125 ± 4.6 µM,–
Oc1ccc(/C=C/c2ccc3cccc(O)c3n2)cc1 [Compound 3a],232 ± 29.2 µM,47.9 ± 3.3 µM,3.4,1.8,67.7 ± 2.8 µM,26.5 ± 4 µM,3.8,2.9,60.5 ± 2.9 µM,16.6 ± 2.2 µM,"Concentration required to significantly decrease cell viability percentage from day 2 post-treatment (SW480 cells [3]; SW480, day 2): 20 µM; Concentration from which cell viability percentage is decreased to 0% / high percentage of reduction (SW480 cells [3]; SW480, treatment up to 8 days): 10 µM; Concentration required to significantly decrease cell viability percentage from day 2 post-treatment (SW620 cells [4]; SW620, day 2): 5 µM; Concentration from which cell viability percentage is decreased to 0% / high percentage of reduction (SW620 cells [4]; SW620, treatment up to 8 days): 10 µM; Apoptotic cells (cell death by apoptosis) (SW620 cells [5]; SW620, 24 h): 6.8%; Apoptotic cells (cell death by apoptosis) (SW620 cells [5]; SW620, 48 h): 21.5%; Levels of Bcl-2 and cleaved PARP (SW620 cells [6]; SW620, 24 and 48 h): did not show significant differences; Levels of active caspase 3 (SW620 cells [6]; SW620, 24 and 48 h post-treatment): significantly increased; Levels of immunological markers (SW480 cells [7]; SW480, 24 h post-treatment): significant increases in the levels of GM-CSF, IFN gamma, IL-12p70, IL-4, IL-6, IL-10, and IL-17A; Levels of immunological markers (SW480 cells [7]; SW480, 48 h post-treatment): significant increases in GM-CSF, IFN gamma, IL-4, IL-6, IL-10 and IL-17A levels; also recorded: significant increases in the levels of IL-1 beta, IL-13, IL-18, IL-2, TNF alpha, IL-22, IL-27, and IL-9; Levels of immunological markers (SW620 cells [8]; SW620, 24 h post-treatment): significant increase in the levels of GM-CSF, IL-13, IL-18, IL-4, TNF alpha, IL-22, and IL-9; Levels of immunological markers (SW620 cells [8]; SW620, 48 h post-treatment): levels of IL-4 and IL-10 were significantly increased"
Oc1cccc(/C=C/c2ccc3cccc(O)c3n2)c1O [Compound 3b],57.2 ± 6.3 µM,33.5 ± 4.9 µM,0.8,0.9,72.6 ± 11 µM,39 ± 3.6 µM,1.2,3.4,49.1 ± 4.6 µM,9.7 ± 2 µM,–
